The subject of one data set is FN45-TG2 interaction. Put plainly: Bio-layer interferometry (BLI) of FN45-TG2 binding. As to the method:
The 45 kDa fibronectin fragment (FN45) corresponding to the TG2 binding region (Sigma, # F0162) was biotinylated using Biotin (Type A) Fast Conjugation Kit (Abcam, # ab201795). Biotinylated FN45 (10 μg/mL in PBS) was captured on pre-hydrated streptavidin-coated sensors (Pall Forte Bio SAX 18-5117). At each TG2 concentration, the binding kinetics were determined by following this sequence run: baseline (PBS for 30 s), association step (varying concentrations of TG2 in PBS for 120 s), and dissociation step (PBS for 120 s). A new FN45 biosensor was prepared for each run. To analyze the effect of the inhibitor MT4 on the interaction between TG2 and FN, a solution of 20 μg/mL of bio-FN45 was used for capturing FN45 on the streptavidin-coated sensors and the association step was 90 s. For each sensor, the capturing step was measured in real-time in order to assess the stability of the signal and the reproducibility between sensors. The saturation level Rmax was 0.6 (+0.08) for all sensors and no dissociation of the biotinylated FN45 was observed over 60 minutes. […] For the experiments with (TG2+MT4), controls were performed at each MT4 concentration and Rmax values were corrected for non-specific binding and any effects of DMSO on the TG2-FN45 interaction (these effects were below 8%). All BLI experiments were performed at 22° C. Data fitted globally using the BLItz Pro 1.10.31 software package as described(14, 15). Isothermal titration calorimetry (ITC) was performed at 25° C. by titrating 160 μM MT4 into a 10 μM solution of TG2 (Sigma, #T5398).
(BLI is a label-free optical method that tracks binding on a fibre tip over time.)

In data set [1] the test system is SKOV3 cells adhesion onto LP9 monolayers. Put plainly: Cell adhesion to LP9 mesothelial monolayers, SKOV3. Format: cell-based. To be noted: 25 μM. As to the method:
LP9 mesothelial cells added to clear-bottom 96-well plate at 12,000 cells/well were grown to confluency over 48 hours (h). OC cells were labeled with calcein AM and seeded at a density of 4×10^4 cells to monolayers of mesothelial cells and incubated for 1 h. Non-adherent cells were removed by washing with PBS.

Data set [2] relates to SKOV3 cells. The data set can be described thus: Wound-healing assay, SKOV3. It is filed as cell-based. The conditions noted are these: 8 μM, 24 hours. As to the method:
(§1) Wound Healing was Performed in 12-Well Plates Coated with 1 μg/Ml FN (Sigma, #1141) overnight at 4° C. OC cells were plated at a density of 2×10^5 cells/well in media containing 2% FBS. Under these conditions cells adhered on substrate, but cell proliferation was minimized. After 16 hours, the cell monolayer was scraped in straight line. Cell debris was removed and serum free media containing selected SMIs or control was replenished. For consistency during image acquisition, a reference point was marked close to the scratch mark and the plate was imaged under phase-contrast microscope at 0, 2, 6, 12 and 24 hours. Wound closure was assessed as the distance between the wound edges, calculated and quantified using the Image Pro-Express software. The percentage of wound closure was evaluated using the formula […]. The rate of migration (μm/h) of OC cells into the wound space was evaluated as the distance difference between wound edges at 0 and 24 h, divided by 24. The experiments were performed in duplicates.

Data set [3] relates to OVCAR5 cells. The data set can be described thus: Wound-healing assay, OVCAR5. It is filed as cell-based, human. To be noted: 8 μM, 24 hours. As to the method:
as §1

The test system of the next data set is SKOV3-GFP cells. The data set can be described thus: In vivo cell attachment to the peritoneum. To be noted: for unattached OC cells recovered from the peritoneal cavity: NSG mice, ip, 10 μg/kg, 2 hours after injection. On the set-up: species or system mice.
The test system of data set [4] is OVCAR5 cells. Put plainly: Colony forming assay after priming, with paclitaxel. To be noted: priming with 1 μM for 72 hours before 5 nM PTX. Format: cell-based, human. As to the method:
After 72 h priming with either 1 μM MT-4, TG53 or vehicle (DMSO), 150 OVCAR5 cells were seeded in 60 mm dishes and treated or not with paclitaxel (PTX, Sigma). Colonies were allowed to form over 10 days, fixed in 4% PFA and stained with 0.4% crystal violet (MP Biomedicals). Colonies were counted, and analysis was performed using the ImageJ software ([…]).Spheroid cultures were carried out as previously described(Condello et al., 2015). Briefly, OC cells were resuspended in Mammocult complete medium (StemCell Technologies) supplemented with Mammocult Proliferation Supplements, heparin and hydrocortisone (StemCell Technologies) and seeded at a concentration of 10,000 cells/well in 96-well ultra-low attachment plates (Corning, Corning, N.Y., USA). After treatment with DMSO (control) or TG53 (1 μM) for 7 days, spheroids were counted and quantified by the CCK-8 assay. All assays were performed in four replicates and were repeated. For priming before PTX treatment, cells were manipulated as described for CFU assay and then seeded in 6-well low-attachment plate (Corning, #3473) at 7000 cells/mL/well and allowed to form spheroids in complete Mammocult media. Spheres were counted after ten days from 4 replicate wells. Two independent experiments were performed.

Data set [5] can be described thus: Pharmacokinetic assessment. It is filed as in vivo, mice. To be noted: for AUC0-∞ / Cl/F / cmax / t1/2 / tmax: 17.46 mg/Kg. An excerpt: Experiment 2: Pharmacokinetic (PK) assessment. PK studies using the highest safe dose will be conducted on lead compounds that were functionally validated and for which a single dose NOAEL could be established (Aim 3A). These will be carried out by the Sanford Burnham Pharmacology Core (see attached LOS). While ip dosing may not be the preferred route of administration for an eventual cancer drug, these studies using ip dosing will give us data on many PK parameters, including bioavailability, which will be useful in prioritizing and triaging optimized compounds for testing using other routes, e.g., oral. PK parameters will be determined including Cmax (maximum plasma concentration), Tmax (time point of maximum concentration), VdSS (volume of distribution at steady-state), ClE (elimination clearance), AUC (area under the curve) t, (elimination half-life), and oral bioavailability (% F) will be obtained (with the inclusion of an i.v. dosed cohort). […] Our goal will be to identify a compound that has a plasma AUC >5× its cell viability EC50, a t1-2>2 hrs, and low-to-moderate clearance. […] Toxicology and pathology measures will be performed only after anti-tumor activity of lead SMIs will be determined, if compounds are found worthy of detailed study (Expt #3). This approach will maximize use of animals and resources. In brief, peripheral blood counts will be obtained; selected organs and tissues (lung, heart, liver, kidney, colon, bone marrow) will be harvested. Bone marrow cellularity and colony formation assay will be determined.

The subject of data set [6] is SKOV3 cells. The conditions noted are these: cited from earlier work.

Take `Cc1cc(N(C)C)nc(Nc2ccc(NC(=O)Cc3ccccc3)cc2)n1` [MT-4]: the “FN45 and rTG2 complex formation” value in the data set on FN45-TG2 interaction (FN45 on sensors incubated with MT4, 16 nM to 500 μM, 15, 30, 45 minutes) was “not affected”. For the same molecule, the “dissociation of FN45-TG2” value in the data set on FN45-TG2 interaction (TG2 pre-incubated with MT4) was “faster dissociation”. Besides, in the data set with FN45-TG2 interaction (rTG2 incubated with MT4 prior to BLI), the “association between FN45 and rTG2” value was “Dose-dependent inhibition”. Also, in data set [1], the “SKOV3 cell binding to the mesothelial layer” value is on record as “significantly decreased”. The “motility (scratch repair)” value in the data set with SKOV3 cells [2] and in the data set with OVCAR5 cells [3] was “inhibited” in each case. The “unattached OC cells recovered from the peritoneal cavity” value is “attached less efficiently” with SKOV3-GFP cells and “Increased numbers” in the data set on SKOV3-GFP cells (listed as MT4). In the data set with SKOV3-GFP cells (nude mice, i.p., 2 hours), the “adhesion of cancer cells to the peritoneum” value is given as “prevented the adhesion”. Moreover, the colony formation entry with OVCAR5 cells [4] is given as “diminished”.

Turning to `COc1ccc(Cl)cc1C(=O)Nc1ccc(Nc2nc(C)cc(N(C)C)n2)cc1` [TG53], in data set [5] (IV), the “AUC0-∞” value was found to be 2913 ng·h/mL, the Cl/F stood at 0.12 L/h, the cmax turned out to be 4045 ng/mL and the t1/2 stood at 3.4 h. This molecule also gave a tmax in data set [5] (IV) of 0 h. Also, in data set [5] (i.p.), the “AUC0-∞” value is 1212 ng·h/mL, the Cl/F worked out at 0.29 L/h, the cmax is 1313 ng/mL and the t1/2 was determined as 19.5 h. In data set [5] (i.p.), this molecule had a tmax of 0.5 h. In data set [5] (ip administration), this molecule gave a t/2 of 19.5 h. The molecule also displayed a t/2 in data set [5] (iv administration) of 3.4 h. Also, the cytotoxicity result with SKOV3 cells [6] is listed as “not cytotoxic”.

These data come from patent publication US20210276960A1, “INHIBITORS OF TISSUE TRANSGLUTAMINASE 2 (TG2) AND USES THEREOF” (Northwestern University, priority 2020, published 2021).
